Measured values reported in patent US7629348B2, “Heterocyclic amide and imine derivatives, processes for their preparation, compositions comprising them and their use as pesticides” (Merial Limited, priority 2001, dated 2009).

The compounds below were run on black bean aphids (Aphis fabae) (assay: Root-systemic test: solution pipetted into bottle with field bean (Vicia faba), aphid mortality). Conditions: 4 ml aqueous solution pipetted into bottle; after 3 and 6 days of storage; concentration 500 ppm or less.
Procedure: Germinated field bean seeds (Vicia faba) with seed roots were transferred into brown glass bottles filled with tap water. Four milliliters of an aqueous solution of the formulated preparation to be examined were pipetted into the brown glass bottle. The field bean was then heavily populated with about 100 black bean aphids (Aphis fabae). Plants and aphids were then stored in a climatized chamber (16 hours of light/day, 25° C., 40-60% relative atmospheric humidity). After 3 and 6 days of storage, the root-systemic effect of the preparation as aphid mortality was determined.

Row | SMILES | root-systemic effect of the preparation as aphid mortality
1 | CCN(Sc1ccccc1)C(=O)c1cnccc1C(F)(F)F [Example 3] | active
2 | CC(C)SN=C(OCCC(C)[N+](=O)[O-])c1cnccc1C(F)(F)F (stereo not shown) [Example 124] | active
3 | O=C(NSc1ccc(Cl)cc1)c1cnccc1C(F)(F)F [Example 18] | active
4 | O=C(NSC1CCCCC1)c1cnccc1C(F)(F)F [Example A, N-cyclohexylthio-(4-trifluoromethyl)nicotinamide] | active
5 | C=CCSNC(=O)c1cnccc1C(F)(F)F [Example 44] | active
6 | CC(C)SNC(=O)c1cnccc1C(F)(F)F [Example 29] | active
7 | O=C(NSCc1ccc(C(F)(F)F)cc1)c1cnccc1C(F)(F)F [Example 84] | active
8 | O=C(NSc1ccc(F)cc1)c1cnccc1C(F)(F)F [Example 23] | active
9 | O=C(NSCc1cccc(C(F)(F)F)c1)c1cnccc1C(F)(F)F [Example 85] | active
10 | CCCCCCCSNC(=O)c1cnccc1C(F)(F)F [Example 50] | active
11 | CC(C)N(Sc1ccccc1)C(=O)c1cnccc1C(F)(F)F [Example 4] | active
12 | O=C(NSc1ccccc1)c1cnccc1C(F)(F)F [Example 2] | active
13 | Cc1ccc(SN(C(=O)c2cnccc2C(F)(F)F)C(C)C)cc1 [Example 6] | active
14 | CCCCCCSNC(=O)c1cnccc1C(F)(F)F [Example 49] | active
15 | CCC(C)SNC(=O)c1cnccc1C(F)(F)F (stereo not shown) [Example B, N-(2-butylthio)-(4-trifluoromethyl)nicotinamide] | active
16 | CC(C)CCSNC(=O)c1cnccc1C(F)(F)F [Example 45] | active
17 | CCCCCSNC(=O)c1cnccc1C(F)(F)F [Example 48] | active
18 | O=C(NSC1CCCC1)c1cnccc1C(F)(F)F [Example 1] | active
19 | O=C(NSC1CC1)c1cnccc1C(F)(F)F [Example 98] | active
20 | CCC(C)CSNC(=O)c1cnccc1C(F)(F)F (stereo not shown) [Example 38] | active

These compounds were tested on black bean aphids (Aphis fabae) (assay: Dip test: field bean plants (Vicia faba) and aphids dipped into solution of preparation, aphid mortality). Conditions: plants and aphids dipped 5 seconds; after 3 and 6 days of storage; concentration 500 ppm or less.
Procedure: Germinated field bean seeds (Vicia faba) with seed roots were transferred into brown glass bottles filled with tap water and then populated with about 100 black bean aphids (Aphis fabae). Plants and aphids were then dipped into an aqueous solution of the formulated preparation to be examined for 5 seconds. After they had drained, plants and animals were stored in a climatized chamber (16 hours of light/day, 25° C., 40-60% relative atmospheric humidity). After 3 and 6 days of storage, the mortality of the preparation on the aphids was determined.

Row | SMILES | mortality of the preparation on the aphids
21 | CCN(Sc1ccccc1)C(=O)c1cnccc1C(F)(F)F [Example 3] | active
22 | CC(C)SN=C(OCCC(C)[N+](=O)[O-])c1cnccc1C(F)(F)F (stereo not shown) [Example 124] | active
23 | O=C(NSc1ccc(Cl)cc1)c1cnccc1C(F)(F)F [Example 18] | active
24 | O=C(NSC1CCCCC1)c1cnccc1C(F)(F)F [Example A, N-cyclohexylthio-(4-trifluoromethyl)nicotinamide] | active
25 | C=CCSNC(=O)c1cnccc1C(F)(F)F [Example 44] | active
26 | CC(C)SNC(=O)c1cnccc1C(F)(F)F [Example 29] | active
27 | O=C(NSCc1ccc(C(F)(F)F)cc1)c1cnccc1C(F)(F)F [Example 84] | active
28 | O=C(NSc1ccc(F)cc1)c1cnccc1C(F)(F)F [Example 23] | active
29 | O=C(NSCc1cccc(C(F)(F)F)c1)c1cnccc1C(F)(F)F [Example 85] | active
30 | CCCCCCCSNC(=O)c1cnccc1C(F)(F)F [Example 50] | active
31 | CC(C)N(Sc1ccccc1)C(=O)c1cnccc1C(F)(F)F [Example 4] | active
32 | O=C(NSc1ccccc1)c1cnccc1C(F)(F)F [Example 2] | active
33 | Cc1ccc(SN(C(=O)c2cnccc2C(F)(F)F)C(C)C)cc1 [Example 6] | active
34 | CCCCCCSNC(=O)c1cnccc1C(F)(F)F [Example 49] | active
35 | CCC(C)SNC(=O)c1cnccc1C(F)(F)F (stereo not shown) [Example B, N-(2-butylthio)-(4-trifluoromethyl)nicotinamide] | active
36 | CC(C)CCSNC(=O)c1cnccc1C(F)(F)F [Example 45] | active
37 | CCCCCSNC(=O)c1cnccc1C(F)(F)F [Example 48] | active
38 | O=C(NSC1CCCC1)c1cnccc1C(F)(F)F [Example 1] | active
39 | O=C(NSC1CC1)c1cnccc1C(F)(F)F [Example 98] | active
40 | CCC(C)CSNC(=O)c1cnccc1C(F)(F)F (stereo not shown) [Example 38] | active
